From patent publication US7241791B2, “Substituted 4-(indazol-3-yl)phenols” (Wyeth, priority 2002, dated 2007)
Where two headings read alike, the source gives them in different places.

Biological target: T1, human ERα (Homo sapiens, UniProt P03372)
T1 sequence (P03372 1-595): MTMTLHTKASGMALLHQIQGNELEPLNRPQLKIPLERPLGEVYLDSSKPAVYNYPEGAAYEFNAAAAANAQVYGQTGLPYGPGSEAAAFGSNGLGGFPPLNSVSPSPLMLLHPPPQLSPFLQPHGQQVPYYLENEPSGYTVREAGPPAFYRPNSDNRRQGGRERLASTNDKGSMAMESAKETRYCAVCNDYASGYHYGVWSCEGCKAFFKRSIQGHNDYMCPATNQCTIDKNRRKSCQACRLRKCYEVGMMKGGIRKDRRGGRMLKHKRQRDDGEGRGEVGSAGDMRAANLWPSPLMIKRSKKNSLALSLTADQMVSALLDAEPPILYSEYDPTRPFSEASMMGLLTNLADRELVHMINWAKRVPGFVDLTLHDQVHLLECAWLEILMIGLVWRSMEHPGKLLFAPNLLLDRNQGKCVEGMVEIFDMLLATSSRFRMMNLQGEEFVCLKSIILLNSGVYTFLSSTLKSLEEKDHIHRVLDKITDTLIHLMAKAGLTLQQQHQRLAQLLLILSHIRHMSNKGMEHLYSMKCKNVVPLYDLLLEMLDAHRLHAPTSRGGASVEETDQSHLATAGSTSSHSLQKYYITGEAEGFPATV
Assay: NF-κB luciferase reporter (ER/NF-KB-luc) in Ad5-wt-hERα infected HAECT-1 cells
Conditions: for IC50: ER/NF-KB-luc IC50, Ad5-wt-ER infected HAECT-1 cells, IL-1β

[1] = HAECT1, read-out: ER/NF-KB-luc % E2, efficacy relative to the maximal inhibition observed with E2
[2] = HAECT1, read-out: ER/NF-KB-luc % E2

| SMILES | IC50 [nM] | Emax [1] [%] | Emax [2] [%] |
| --- | --- | --- | --- |
| Cc1ccccc1-c1cccc2c(-c3ccc(O)cc3)nn(C3CCCC3)c12 [Example 245, 4-[1-cyclopentyl-7-(2-methylphenyl)-1H-indazol-3-yl]phenol] | 16 | 70 |  |
| CSc1ccc(-c2cccc3c(-c4ccc(O)cc4)nn(C(C)C)c23)cc1 [Example 228, 4-{1-isopropyl-7-[4-(methylthio)phenyl]-1H-indazol-3-yl}phenol] | 75 | 83 |  |
| CCCn1nc(-c2ccc(O)cc2)c2cccc(-c3ccccc3)c21 [Example 111, 4-(7-phenyl-1-propyl-1H-indazol-3-yl)phenol] | 214 | 78 |  |
| CCCn1nc(-c2ccc(OC(=O)CC)cc2)c2cccc(Cl)c21 [Example 123, 4-(7-chloro-1-propyl-1H-indazol-3-yl)phenyl propionate] | 328 | 71 |  |
| Oc1ccc(-c2nn(-c3cccc(F)c3)c3cc(O)ccc23)c(O)c1 [Example 21, 4-[1-(3-fluorophenyl)-6-hydroxy-1H-indazol-3-yl]benzene-1,3-diol] |  |  | 73 |
| Oc1ccc(-c2nn(-c3ccc(F)c(Cl)c3)c3cc(O)ccc23)c(O)c1 [Example 24, 4-[1-(3-chloro-4-fluorophenyl)-6-hydroxy-1H-indazol-3-yl]benzene-1,3-diol] | 63 | 83 |  |
| Oc1ccc(-c2nn(-c3ccc(Br)cc3)c3c(C(F)(F)F)cccc23)cc1 [Example 31, 4-[1-(4-bromophenyl)-7-(trifluoromethyl)-1H-indazol-3-yl]phenol] | 636 | 120 |  |
| CC(C)c1ccc(-n2nc(-c3ccc(O)cc3O)c3ccc(O)cc32)cc1 [Example 27, 4-[6-hydroxy-1-(4-isopropylphenyl)-1H-indazol-3-yl]benzene-1,3-diol] | 1030 | 96 |  |
| CCc1ccc(-c2cccc3c(-c4ccc(O)cc4C)nn(C(C)C)c23)cc1 [Example 251, 4-[7-(4-ethylphenyl)-1-isopropyl-1H-indazol-3-yl]-3-methylphenol] | 24 | 57 |  |
| CCCn1nc(-c2ccc(O)cc2)c2cccc(Cl)c21 [Example 43, 4-(7-chloro-1-propyl-1H-indazol-3-yl)phenol] |  | 79 |  |
| Oc1ccc(-c2nn(C3CCCC3)c3c(F)cccc23)c(O)c1 [Example 88, 4-(1-cyclopentyl-7-fluoro-1H-indazole-3-yl)benzene-1,3-diol] | 419 | 74 |  |
| CCNC(=O)Oc1ccc(-c2nn(C3CCCC3)c3c(F)cccc23)cc1 [Example 118, 4-(1-cyclopentyl-7-fluoro-1H-indazol-3-yl)phenyl ethylcarbamate] | 418 |  | 66 |
| Cc1cc(O)ccc1-c1nn(C2CCCC2)c2c(Cl)cccc12 [Example 84, 4-(7-chloro-1-cyclopentyl-1H-indazole-3-yl)-3-methylphenol] | 36 | 75 |  |
| CC(C)n1nc(-c2ccc(O)cc2)c2cccc(-c3ccc(-c4ccccc4)cc3)c21 [Example 233, 4-[7-(1,1′-biphenyl-4-yl)-1-isopropyl-1H-indazol-3-yl]phenol] | 87 | 81 |  |
| Oc1ccc(-c2nn(C3CCCC3)c3c(-c4ccc(C(F)(F)F)cc4)cccc23)cc1 [Example 237, 4-{1-cyclopentyl-7-[4-(trifluoromethyl)phenyl]-1H-indazol-3-yl}-phenol] | 480 | 79 |  |
| C=CCn1nc(-c2ccc(O)cc2O)c2cccc(Cl)c21 [Example 85, 4-(1-allyl-7-chloro-1H-indazole-3-yl)benzene-1,3-diol] | 235 | 46 |  |
| CCCn1nc(-c2ccc(O)cc2)c2cccc(-c3ccc(O)cc3)c21 [Example 103, 4-[3-(4-hydroxyphenyl)-1-propyl-1H-indazole-7-yl]phenol] | 138 | 79 |  |
| CCCn1nc2c(F)cccc2c1-c1ccc(O)cc1C [Example 92, 4-(7-fluoro-2-propyl-2H-indazole-3-yl)-3-methylphenol] | 228 | 87 |  |
| O=[N+]([O-])c1cccc(-n2nc(-c3ccc(O)cc3O)c3ccc(O)cc32)c1 [Example 25, 4-[6-hydroxy-1-(3-nitrophenyl)-1H-indazol-3-yl]benzene-1,3-diol] | 274 | 112 |  |
| CC(C)n1nc(-c2ccc(O)cc2O)c2cccc(Cl)c21 [Example 80, 4-(7-chloro-1-isopropyl-1H-indazol-3-yl)benzene-1,3-diol] | 18 | 48 |  |
| Cc1cc(O)ccc1-c1nn(CC(C)C)c2c(F)cccc12 [Example 96, 4-(7-fluoro-1-isobutyl-1H-indazole-3-yl)-3-methylphenol] | 88 | 78 |  |

| SMILES | IC50 [nM] | Emax [1] [%] | Emax [2] [%] |
| --- | --- | --- | --- |
| CCCn1nc2c(F)cccc2c1-c1ccc(O)cc1 [Example 54, 4-(7-fluoro-2-propyl-2H-indazol-3-yl)phenol] | 393 | 77 |  |
| Oc1ccc(-c2nn(CC3CCCCC3)c3c(C(F)(F)F)cccc23)c(O)c1 [Example 67, 4-[1-(cyclohexylmethyl)-7-(trifluoromethyl)-1H-indazol-3-yl]benzene-1,3-diol] | 48 | 65 |  |
| CC(C)(C)C(=O)Oc1ccc(-c2nn(C3CCCC3)c3c(F)cccc23)cc1 [Example 112, 4-(1-cyclopentyl-7-fluoro-1H-indazol-3-yl)phenyl pivalate] | 667 | 48 |  |
| CC(C)n1nc2c(F)cccc2c1-c1ccc(O)cc1O [Example 89, 4-(7-fluoro-2-isopropyl-2H-indazole-3-yl)benzene-1,3-diol] | 435 | 97 |  |
| Cc1cc(-c2nn(C3CCCC3)c3c(F)cccc23)ccc1O [Example 63, 4-(1-cyclopentyl-7-fluoro-1H-indazol-3-yl)-2-methylphenol] | 1880 | 158 |  |
| Oc1ccc(-c2nn(C3CCCC3)c3c(-c4ccccc4Cl)cccc23)cc1 [Example 243, 4-[7-(2-chlorophenyl)-1-cyclopentyl-1H-indazol-3-yl]phenol] | 142 | 83 |  |
| Cn1nc(-c2ccc(O)cc2)c2cc(F)c(Cl)cc21 [Example 125, 4-(6-chloro-5-fluoro-1-methyl-1H-indazol-3-yl)phenol] | 479 | 128 |  |
| Oc1ccc(-c2nn(Cc3ccccc3)c3c(C(F)(F)F)cccc23)c(O)c1 [Example 143, 4-[1-benzyl-7-(trifluoromethyl)-1H-indazol-3-yl]benzene-1,3-diol] | 310 | 65 |  |
| Cc1cc(O)ccc1-c1nn(C(C)C)c2c(-c3ccc(-c4ccccc4)cc3)cccc12 [Example 252, 4-[7-(1,1′-biphenyl-4-yl)-1-isopropyl-1H-indazol-3-yl]-3-methyl-phenol] | 56 | 59 |  |
| CCc1ccc(-c2cccc3c(-c4ccc(O)cc4C)nn(C4CCCC4)c23)cc1 [Example 260, 4-[1-cyclopentyl-7-(4-ethylphenyl)-1H-indazol-3-yl]-3-methyl-phenol] | 28 | 53 |  |
| Oc1ccc(-c2nn(C3CCCCC3)c3c(C(F)(F)F)cccc23)cc1 [Example 32, 4-[1-cyclohexyl-7-(trifluoromethyl)-1H-indazol-3-yl]phenol] | 65 | 91 |  |
| Oc1ccc(-c2nn(-c3ccsc3)c3c(Cl)cccc23)cc1 [Example 101, 4-(7-chloro-1-thien-3-yl-1H-indazole-3-yl)phenol] | 505 | 61 |  |
| CC(C)n1nc(-c2ccc(O)cc2)c2cccc(-c3ccccc3Cl)c21 [Example 234, 4-[7-(2-chlorophenyl)-1-isopropyl-1H-indazol-3-yl]phenol] | 34 | 72 |  |
| CCCCCn1nc2c(Cl)cccc2c1-c1ccc(O)cc1 [Example 42, 4-[7-chloro-2-pentyl-2H-indazol-3-yl]phenol] | 190 | 102 |  |
| Oc1ccc(-c2nn(C3CCCC3)c3c(-c4cccs4)cccc23)cc1 [Example 238, 4-(1-cyclopentyl-7-thien-2-yl-1H-indazol-3-yl)phenol] | 11 | 74 |  |
| Oc1ccc(-c2nn(Cc3ccccc3)c3c(F)cccc23)c(O)c1 [Example 151, 4-(1-benzyl-7-fluoro-1H-indazol-3-yl)benzene-1,3-diol] | 1060 | 81 |  |
| CCc1ccc(-c2cccc3c(-c4ccc(O)cc4)nn(C4CCCC4)c23)cc1 [Example 241, 4-[1-cyclopentyl-7-(4-ethylphenyl)-1H-indazol-3-yl]phenol] | 32 | 60 |  |
| CCCn1nc(-c2ccc(O)cc2O)c2ccc(O)cc21 [Example 1, 4-(6-hydroxy-1-propyl-1H-indazol-3-yl)benzene-1,3-diol] |  | 74 |  |
| Oc1ccc(-c2nn(Cc3ccccc3)c3c(C(F)(F)F)cccc23)cc1 [Example 147, 4-[1-benzyl-7-(trifluoromethyl)-1H-indazol-3-yl]phenol] |  | 65 |  |
| CCc1ccc(-c2cccc3c(-c4ccc(O)cc4)nn(C(C)C)c23)cc1 [Example 232, 4-[7-(4-ethylphenyl)-1-isopropyl-1H-indazol-3-yl]phenol] | 143 | 75 |  |
